Test results taken from PMC5772648, “Targeted NUDT5 inhibitors block hormone signaling in breast cancer cells” (Nature Communications, 2018).
Several values for one entry are separate records, joined by “and”; a condition that tells them apart may be missing. Identical values can stand only once.

Key:
[1] = SafetyScreen 44 and ExpresSDiversity kinase panels (Eurofins Cerep Panlabs); parameters: species or system human; settings: 10 µM
Description: TH5427 selectivity was also studied with the SafetyScreen44™ Panel and ExpresSDiversity Kinase Panel from Eurofins Cerep Panlabs at 10 µM, according to the company’s procedures.

[2] = molecular target: T1, NUDT5 in T47D cells (Homo sapiens, UniProt Q9UKK9); assay: intact cell CETSA in T47D cells; format: cell-based; settings: 1.5 µM TH5427, 83 °C
T1 construct: endogenous in cells; host or cells: T47D (T47D^WT)
Description: For CETSA experiments with cells treated in culture, 1 × 10^6 HL-60 were treated with DMSO (0.1 % v/v final) or 20 µM compound for 3 h at 37 °C and 5% CO2 in a humidified incubator. T47D^WT cells were treated instead with 80 µM TH1659, 15 µM TH5423/5424 and 1.5 µM TH5427. The cells were harvested, washed twice with PBS and resuspended in TBS with protease inhibitors, as above. Heating was identical as before, except that immediately following heating, the cell suspensions were snap frozen in a dry ice/ethanol bath and freeze-thawed, as previously, to lyse cells. Centrifugation at 20 000 × g for 20 min at 4 °C removed cellular debris and protein aggregates, and lysates were prepared for western blotting.

[3] = molecular target: MTH1 (Homo sapiens, UniProt P36639); assay: phosphohydrolase selectivity, malachite green assay; format: biochemical; parameters: His-tag (N); made in house; host or cells: E. coli BL21 (DE3) R3 pRARE2
Description: The selectivity assay for TH5427 against similar pyrophosphohydrolases was performed with MTH1, NUDT9, NUDT2, NUDT12, NUDT14, NUDT15, NUDT18, ITPase, dCTPase and dUTPase[9]. All analyses were performed by malachite green assay following 30 min incubation at room temperature in reaction buffer (100 mM Tris Acetate, pH 7.5, 40 mM NaCl, 10 mM MgAc, 1 mM DTT) with 100 µM TH5427 and preferred substrates for each enzyme (4.75 nM MTH1 with 100 µM dGTP, 8 nM NUDT15 with 100 µM dGTP, 8 nM NUDT2 with 16 µM AP4A, 2 nM NUDT5 with 50 µM ADPR, 20 nM NUDT9 with 50 µM ADPR, 20 nM NUDT12 with 50 µM NADH, 2 nM NUDT14 with 50 µM ADPR, 200 nM NUDT18 with 50 µM 8-oxo-dGTP, 0.2 nM ITPase with […], 35 nM dCTPase with 35 µM dCTP, and 1 nM dUTPase with 12.5 µM dUTP). MTH1, NUDT15, NUDT18, ITPase, dCTPase and dUTPase reactions were coupled with 0.2 U/mL pyrophosphatase, while NUDT2, NUDT5, NUDT9, NUDT12, and NUDT14 reactions were coupled by bovine intestinal phosphatase (10 U/mL).

[4] = tested on: HL-60 or U-2 OS cells; assay: cell viability by resazurin; format: cell-based; settings: 72 h, Supplementary Figs. 7 and 10b (HL-60, U-2 OS, T47D)
Description: Cell viability was assessed by resazurin[9]. 5000 HL-60 cells (or 1000 U-2 OS/2000 T47D cells) were seeded per well on a 96-well plate. The following morning, compounds (or the equivalent amount of DMSO) were added to obtain the final concentrations indicated and the cells were incubated at 37 °C for 72 h with resazurin added at 0.02 mg/mL for the last 2–6 h. Resorufin fluorescence was detected at […] with a Hidex Sense fluorescent plate reader. Viability curves were fit using the sigmoidal dose-response (variable slope) function in GraphPad Prism 7.

[5] = molecular target: T2, NUDT5 in HL-60 cells (Homo sapiens, UniProt Q9UKK9); assay: drug affinity responsive target stability (DARTS); format: cell-based; settings: 0.74 and 2.2 µM, 4 h, HL-60 cells in culture
T2 construct: endogenous in cells; host or cells: HL-60
Description: Target engagement was also determined by drug affinity responsive target stability (DARTS)[33]. HL-60 cells were treated in culture with DMSO (0.1% v/v) or TH5427 at 0.7 or 2.2 µM for 4 h. Following two PBS washes, the cells were lysed with M-PER extraction buffer (ThermoFisher) supplemented with protease inhibitor cocktail (Roche). The lysates were divided into 20 µg aliquots and followed by digestion with pronase at the indicated protein to pronase ratios for 30 min at room temperature. Samples were prepared for western blotting and NUDT5 stabilization was compared with SOD1 as a loading control.

Cn1c(=O)c2c(nc(N3CCNCC3)n2Cc2nnc(-c3ccc(Cl)c(Cl)c3)o2)n(C)c1=O [TH5427]
off-target interactions in panels [1]: only displayed a few significant interactions | NUDT5 stabilization in T47D cells [2]: demonstrated the best ability to stabilize NUDT5 in T47D cells | inhibition at 100 µM ([3]; 100 µM): 82% | IC50 ([3]; dose-response, malachite green assay): 20.3 µM and 20 µM | selectivity for NUDT5 over MTH1 ([3]; in vitro, ratio of IC50 values): 690 fold | toxicity in cell lines tested [4]: non-toxic in cell lines tested up to 20 µM | NUDT5 stabilization against protease degradation [5]: stabilized NUDT5 against exogenous protease degradation
